Test results taken from PubChem BioAssay (NCI).
“And” between values parts separate entries of the source, which are not always exact repeats. Identical values can stand only once.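 How tested: cells in 96-well plates exposed to compound for 48 hours at five concentrations. Here, GI50 denotes the concentration required for 50% inhibition of growth. TGI: concentration producing complete growth inhibition.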

Tested on: MDA-MB-468 breast
Experiment: growth of human tumour cells (NCI), 48 h

For C=C1C(=O)O[C@H]2[C@H]1CC/C(Cn1cc(-c3ccccc3C(F)(F)F)nn1)=C\CC[C@@]1(C)O[C@@H]21, the GI50 was 1140 nM and the TGI was 2800 nM.

O=C1C(=O)c2cccnc2-c2ncccc21 was tested, and the GI50 was 193 nM and the TGI was 491 nM.

For CCN(CC)c1ccc(C(=O)c2ccc(N(CC)CC)cc2)cc1, the GI50 was 298 nM and the TGI was 1660 nM.

In the case of Cc1ccc(Cl)cc1NC(=O)c1sc2nc3c(cc2c1N)C(=O)CCC3, the GI50 was 2740 nM and the TGI was 8760 nM.

For COc1cc(Nc2ncc(F)c(Nc3ccc4c(n3)N(COP(=O)(O)O)C(=O)C(C)(C)O4)n2)cc(OC)c1OC, the GI50 was 1550 nM and 1650 nM and the TGI was 4740 nM and 5420 nM.

For Cc1cc(N2CCOCC2)cc2[nH]c(-c3c(NC[C@@H](O)c4cccc(Cl)c4)cc[nH]c3=O)nc12, the GI50 was 3650 nM and the TGI was 14000 nM.

For OC(c1cc(C23CC4CC(CC(C4)C2)C3)nc2c(Cl)cc(Cl)cc12)C1CCCCN1 (configuration not stated), the GI50 was 1480 nM and the TGI was 2810 nM.

In the case of O=C(/C=C/c1ccc(C(F)(F)F)cc1)c1ccc(Nc2nc(NCCO)nc(Nc3ccc(Cl)cc3)n2)cc1, the GI50 was 5540 nM and the TGI was 21300 nM.

CN(C)c1ccc(/C=C/c2cc[n+](C)c(/C=C/c3ccc(N(C)C)cc3)c2)cc1 was tested, and the GI50 was 96.9 nM and the TGI was 537 nM.

Work on O=C(OC[C@H]1O[C@H](OC(=O)c2cc(O)c(O)c(OC(=O)c3cc(O)c(O)c(O)c3)c2)[C@H](OC(=O)c2cc(O)c(O)c(OC(=O)c3cc(O)c(O)c(O)c3)c2)[C@@H](OC(=O)c2cc(O)c(O)c(OC(=O)c3cc(O)c(O)c(O)c3)c2)[C@@H]1OC(=O)c1cc(O)c(O)c(OC(=O)c2cc(O)c(O)c(O)c2)c1)c1cc(O)c(O)c(OC(=O)c2cc(O)c(O)c(O)c2)c1 yielded a GI50 of 4750 nM and a TGI of 17800 nM.

With O=C1C(Cl)=C(NCc2ccco2)C(=O)c2ccccc21 the GI50 was 3710 nM and the TGI was 22000 nM.

Work on O=C1CCc2c(sc3[nH]c(=S)n(Cc4ccc(Cl)cc4)c(=O)c23)C1 yielded a GI50 of 299 nM and a TGI of 1210 nM.

Work on C[N+]1=C(/C=C\C=C\c2ccccc2)C(C)(C)c2ccccc21 yielded a GI50 of 636 nM and a TGI of 4550 nM.

For N#C/C(=C\c1ccc(Br)cc1)n1nnc2ccc(F)cc21, the GI50 was 271 nM and the TGI was 867 nM.

C=C1CC2(OC1=O)C(=O)Nc1ccccc12 (configuration not stated) showed a GI50 of 854 nM and a TGI of 2700 nM.

Work on Cn1cc(-c2ccc(-c3ccc(C4=NC5(CC5)C(=O)N4C[C@@H]4CCN(C(=O)C5CC5)C4)cc3)cc2)cn1 yielded a GI50 of 16900 nM and a TGI of 40100 nM.

Compound COC(=O)[C@@H](C)C[C@H](Cc1ccccc1)NC(=O)c1csc([C@@H](C[C@H](C(C)C)N(C)C(=O)[C@@H](NC(=O)[C@H]2CCCCN2C)C2CC2)OC(C)=O)n1 has a TGI of over 16500 nM.

In the case of CCN1CCN(CC(=O)N2c3cccc4cccc(c34)N(C(=O)CN3CCN(CC)CC3)C2c2cn(-c3ccccc3)nc2-c2cccc([N+](=O)[O-])c2)CC1, the GI50 was 1260 nM and the TGI was 2760 nM.

CCNC(=O)O[C@H]1CN[C@H](C#Cc2cc3ncnc(Nc4ccc(OCc5cccc(F)c5)c(Cl)c4)c3s2)C1 showed a GI50 of 155 nM and a TGI of 1920 nM.

O=C1C[C@@H]2/C(=C(O)\C=C\c3ccccc3)C(=O)C=C[C@@H]2O1 gave a GI50 of 1580 nM and a TGI of 3210 nM.

Cc1cnc(C(=O)NNc2nc3sc4c(c3c(=O)n2C)C(C)CCC4)cn1 (configuration not stated) showed a GI50 of 278 nM and a TGI of 1070 nM.

For Cc1cn(-c2cc(NC(=O)c3ccc(C)c(Nc4nccc(-c5cccnc5)n4)c3)cc(C(F)(F)F)c2)cn1, the GI50 was 1800 nM and 1750 nM and the TGI was 4060 nM and 8390 nM.

In the case of Cc1cnc(C(=O)Nc2nc3ccc(S(=O)(=O)Nc4ccc(C5(C(F)(F)F)CC5)cc4)cc3[nH]2)cn1, the GI50 was 224 nM and the TGI was 1980 nM.

Work on COc1cc(-c2nc(SCCC(C)C)nc(Nc3ccc(S(N)(=O)=O)cc3)c2C#N)cc(OC)c1OC yielded a GI50 of 3070 nM and a TGI of 9960 nM.

COc1ccc(-c2ccc(-c3ccc(C(=N)N)o3)o2)cc1 gave a GI50 of 864 nM and a TGI of 2840 nM.

COc1cc(C2CC(c3ccc(Nc4ccnc5cc(Cl)ccc45)cc3)=NN2c2ccc(Cl)cc2)cc(OC)c1OC (configuration not stated) gave a GI50 of 908 nM and a TGI of 9670 nM.

Work on Cc1ncc(C(=O)Nc2ccc(CN3CCN(C)CC3)c(C(F)(F)F)c2)cc1C#Cc1cnc(N)cc1C#N yielded a GI50 of 1290 nM and a TGI of 3780 nM.

Work on CCOC(=O)c1c2c(n3ccccc13)C(=O)c1ncccc1C2=O yielded a GI50 of 2770 nM and a TGI of 12000 nM.

S=P(N1CC1)(N1CC1)N1CC1 showed a GI50 of 23700 nM and a TGI of 170000 nM.
